Test results from publication PMC6838151 (Scientific Reports, 2019).
≈ marks a conversion by molar mass, not a printed value.

Key:
[1] = tested on: hASCs (human adipose-derived stromal cells); test: Cytotoxicity IC50, TOX-8 resazurin assay, hASCs, 24 h; assay type: cell-based
Description: Human Adipose Tissue-derived Stem Cells (hASCs) were isolated from subcutaneous adipose tissue fragments harvested from non-diabetic female donors (age range 33–38, n = 2) during standard surgical procedure of total hip arthroplasty. Immediately after collection of tissue, the samples were placed in sterile tissue-transport medium (Hank’s Balanced Salt Solution (HBSS) supplemented with 1% Penicillin/Streptomycin/Amphotericin B solution (P/S/A). Mesenchymal stromal cell isolation was performed using enzymatic digestion of extracellular matrix with collagenase type I. Before digestion, tissue specimens were washed twice with HBSS and incubated in collagenase type I solution (1 mg/mL) at 37 °C for 40 min. The digest was subsequently centrifuged (1200 × g; 10 minutes; room temperature) and the cell pellet was resuspended in Dulbecco’s modified Eagle’s medium (DMEM) with Nutrient F-12 Ham, 10% of Fetal Bovine Serum (FBS), and 1% of P/S/A, transferred to a culture flask, and kept in culture under optimal conditions (37 °C in a humidified atmosphere of 5% CO2). The medium was refreshed every 2–3 days. At 80–90% confluence, the cells were passaged using trypsin solution (TrypLE Express, Life Technologies, California, USA). At passage 3, hASCs were collected and cellular phenotype was confirmed by the high expression of markers CD44, CD29, CD73, CD105 and low expression of CD45. Moreover, the trilineage differentiation capacity of ASCs was confirmed as previously described.
The IC50 values were determined using in vitro Toxicology TOX-8 Assay Kit (resazurin based) according to the manufacturer’s protocol. For this assay, cells were seeded in a 96-well plate at a density of 5 × 10^3 cells/well. The cells were pre-incubated in drug-free complete medium for 24 h before adding various concentrations of the compounds to be investigated. Stock solutions of the compounds were prepared in DMSO following serial dilutions in DMEM with Nutrient F-12 Ham complete medium. The cells exposure period was 24 h. After that time media were replaced with 10% v/v resazurin dye solution in fresh complete culture medium. Incubation was carried out for 2 h at 37 °C in the CO2 incubator. Reduction of the dye was measured spectrophotometrically at 600 nm and 690 nm reference wavelength (Epoch, Biotek). Absorbance measurements allowed the determination of viable treated cells relative to untreated controls using the inflection point of a dose-response graph. IC50 values were estimated as duplicates of triplicate readings in two independent experiments.

C. albicans CAF2-1 [2] = test: microbe, parasite or virus in culture; assay type: cell-based, Candida albicans; details: Candida albicans, CAF21, read-out: Viability of C. albicans CAF2-1
Description: The synergistic effects of KeOP/KeP with Flc were determined using the M27-A3 method with modifications. Flc and KeOP/KeP stock solutions in DMSO (10 mM) were (alone and simultaneously) diluted in RPMI-1640 medium to obtain final concentrations of^1/8; ^1/4; ^1/2; 1 × MIC50 towards C. albicans CAF2-1 strain in microdilution sterile plates (Sarstedt). Statistical significance analysis was performed using Student’s t-test ([…], unpaired) comparing viability in the presence of corresponding Flc concentrations with/without KeOP/KeP.

[3] = cited from earlier work
C. albicans Gu4 = test: microbe, parasite or virus in culture; assay type: cell-based; details: Candida albicans, GU4, 48 h
Source text: (§1) The C. albicans CAF2-1 (Genotype/Description: ura3Δ::imm434/URA3[89]) and DSY1050 (Genotype/Description: cdr1Δ::hisG/cdr1Δ::hisG/cdr2Δ::hisG/cdr2Δ::hisG/mdr1Δ::hisG-URA3-hisG/mdr1Δ::hisG[90]) strains used in this study were generous gift from D. Sanglard (Lausanne, Switzerland)[91],[92] whereas C. albicans B3 and Gu4 (Genotype/Description: clinical isolates fluconazole sensitive)[93]), B4 (Genotype/Description: Clinical isolate fluconazole resistant due to the overexpression of MDR1[93]) and Gu5 (Genotype/Description: Clinical isolate fluconazole resistant due to the overexpression of CDR1 and CDR2[93]) were a generous gift from prof. S. Milewski (Gdańsk, Poland)[94] and prof. J. Morschhäuser (Wurzburg, Germany)[93]. All strains were grown at 37 °C on Sabouraud medium (Biomerieux).
(§2) The antifungal activity was determined on the 96-well polystyrene microtiter plates (Sarstedt) according to Clinical and Laboratory Standards Institute M27-A3[95]. […] The compounds were dissolved in DMSO (10 mM) and then serially diluted in RPMI-1640 (ThermoFisher) medium to obtain the final concentration range. Inocula of all strains were prepared as suspensions with turbidity of 0.5 McFarland standard in sterile 0.85% saline and diluted in RPMI-1640. After inoculation, each well contained appr. 5 × 10^2 CFU/mL. The plates were cultivated for 48 h at 37 °C. Optical density was measured at A490nm using a microplate reader ASYS UVM 340 (Biogenet).

C. albicans B3 = test: microbe, parasite or virus in culture; assay type: cell-based; details: Candida albicans, B3, 48 h
Source text: as §1, §2

C. albicans CAF2-1 [4] = test: microbe, parasite or virus in culture; assay type: cell-based, Candida albicans; details: Candida albicans, CAF21, 48 h
Source text: as §1, §2

C. albicans DSY1050 = test: microbe, parasite or virus in culture; assay type: cell-based, Candida albicans; details: Candida albicans, DSY1050, 48 h
Source text: as §1, §2

C. albicans B4 = test: microbe, parasite or virus in culture; assay type: cell-based, Candida albicans; details: Candida albicans, B4, 48 h
Source text: as §1, §2

C. albicans Gu5 = test: microbe, parasite or virus in culture; assay type: cell-based, Candida albicans; details: Candida albicans, GU5, 48 h
Source text: as §1, §2

OC(Cn1cncn1)(Cn1cncn1)c1ccc(F)cc1F [Flc, fluconazole, reference compound]
IC50 (cytotoxicity, hASCs viability) [1]: not cytotoxic in the tested concentration range
viability at 0.78 µM (C. albicans CAF2-1 [2]): 86.9 ± 7.84%
viability at 1.56 µM (C. albicans CAF2-1 [2]): 71.3 ± 13.9%
viability at 3.13 µM (C. albicans CAF2-1 [2]): 73.8 ± 4.35%
viability at 6.25 µM (C. albicans CAF2-1 [2]): 38 ± 8.94%
fold less active in vitro than Ke [3]: approximately 16 fold
MIC50 (C. albicans Gu4): 6.25 µM (≈ 1.91 µg/mL)
MIC50 (C. albicans B3): 6.25 µM (≈ 1.91 µg/mL)
MIC50 (C. albicans CAF2-1 [4]): 6.25 µM (≈ 1.91 µg/mL)
MIC50 (C. albicans DSY1050): 0.78 µM (≈ 0.239 µg/mL)
MIC50 (C. albicans B4): 50 µM (≈ 15.3 µg/mL)
MIC50 (C. albicans Gu5): > 200 µM
